Measurements: patent US20250304567A1, “PYRROLIDIONE DERIVATIVES AS INHIBITORS OF NF KAPPA B INDUCING KINASE” (priority 2022, published 2025)
pIC50: −log10 of the molar value.

Assays:
[1] = biological target: Recombinant Human NF-kappaB-Inducing Kinase (NIK/MAP3K14) (Homo sapiens, UniProt Q99558); assay: Inhibition of auto-phosphorylation of recombinant human NIK/MAP3K14 activity (AlphaScreen); type: biochemical; settings: 5 μM ATP, 1 nM NIK, average if tested more than once
Procedure, shortened: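 GST-tagged NIK (1 nM) auto-phosphorylation with 5 μM ATP, 2 h at 25 °C, pH 7.5 Tris buffer, 0.7% DMSO; stopped with anti-phospho-IKK Ser176/180 antibody and read by AlphaScreen. Signal normalized to full-activity and no-enzyme/no-ATP controls; IC50 from sigmoidal fit of % inhibition vs log concentration.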

[2] = test system: p-IKKa levels in L363 (NIK translocated multiple myeloma) cells; assay: Effect of compounds on p-IKKa levels in L363 (NIK translocated multiple myeloma) cells (AlphaLISA SureFire Ultra p-IKKa Ser176/180); type: cell-based, human; settings: Homo sapiens, L-363, p-IKKa levels in L363 cells; average if tested more than once; read-out: Assay 2 IC50
Procedure, shortened: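 L363 multiple myeloma cells, BAFF-stimulated overnight (250 ng/ml), then 6 h at 37 °C with compound (11-point 1:3 series, 0.3% DMSO) plus BAFF and 10 μM MG132. p-IKKa Ser176/180 read by AlphaLISA SureFire Ultra; IC50 from sigmoidal fit normalised to stimulated and unstimulated controls.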

Chain of Recombinant Human NF-kappaB-Inducing Kinase (NIK/MAP3K14) (Q99558 whole entry): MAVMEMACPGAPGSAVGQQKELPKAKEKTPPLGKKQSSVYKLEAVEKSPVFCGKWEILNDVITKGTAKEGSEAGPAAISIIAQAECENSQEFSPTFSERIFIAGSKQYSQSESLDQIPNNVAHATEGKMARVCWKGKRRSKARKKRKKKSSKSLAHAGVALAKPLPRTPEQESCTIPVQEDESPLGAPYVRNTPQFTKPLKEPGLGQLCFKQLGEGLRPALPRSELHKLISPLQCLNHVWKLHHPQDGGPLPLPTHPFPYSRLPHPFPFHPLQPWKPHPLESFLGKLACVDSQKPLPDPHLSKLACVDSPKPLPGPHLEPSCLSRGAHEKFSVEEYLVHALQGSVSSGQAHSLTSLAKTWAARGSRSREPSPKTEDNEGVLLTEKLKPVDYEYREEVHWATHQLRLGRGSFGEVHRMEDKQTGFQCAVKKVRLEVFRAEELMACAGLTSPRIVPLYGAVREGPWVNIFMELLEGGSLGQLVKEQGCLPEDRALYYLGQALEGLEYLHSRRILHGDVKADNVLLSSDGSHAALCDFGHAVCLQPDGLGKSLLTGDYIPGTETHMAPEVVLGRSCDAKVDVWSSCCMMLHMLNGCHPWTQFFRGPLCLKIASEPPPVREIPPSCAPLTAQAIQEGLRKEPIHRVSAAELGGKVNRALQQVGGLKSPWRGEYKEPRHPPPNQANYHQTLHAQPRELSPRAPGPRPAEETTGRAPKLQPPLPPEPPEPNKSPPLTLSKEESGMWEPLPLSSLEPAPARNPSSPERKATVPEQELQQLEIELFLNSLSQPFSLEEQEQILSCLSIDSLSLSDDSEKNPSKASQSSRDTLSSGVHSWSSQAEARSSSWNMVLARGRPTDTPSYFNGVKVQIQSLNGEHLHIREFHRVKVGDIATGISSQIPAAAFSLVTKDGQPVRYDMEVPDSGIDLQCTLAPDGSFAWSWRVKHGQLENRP

Structure (SMILES) | pIC50 [1] | pIC50 [2]
CCCn1ccc(Nc2nccc(-c3csc(-c4cccc([C@]5(O)CCN(C)C5=O)c4)n3)n2)n1 [Example 67, (R)-3-hydroxy-1-methyl-3-(3-(4-(2-((1-propyl-1H-pyrazol-3-yl)amino)pyrimidin-4-yl)thiazol-2-yl)phenyl)pyrrolidin-2-one] | > 7.00 | 6.30 to 7.00
CN1CC[C@@](O)(c2cccc(-c3nc(-c4ccnc(Nc5cccnc5)n4)cs3)c2)C1=O [Example 68, (R)-3-hydroxy-1-methyl-3-(3-(4-(2-(pyridin-3-ylamino)pyrimidin-4-yl)thiazol-2-yl)phenyl)pyrrolidin-2-one] | < 6.30 | < 6.30
CN1CC[C@@](O)(c2cccc(-c3nc(-c4ccnc(Nc5nn(C)c6ccccc56)n4)cs3)c2)C1=O [Example 69, (R)-3-hydroxy-1-methyl-3-(3-(4-(2-((1-methyl-1H-indazol-3-yl)amino)pyrimidin-4-yl)thiazol-2-yl)phenyl)pyrrolidin-2-one] | > 7.00 | < 6.30
CCc1cc(Nc2nccc(-c3csc(-c4cccc([C@]5(O)CCN(C)C5=O)c4)n3)n2)ncn1 [Example 70, (R)-3-(3-(4-(2-((6-ethylpyrimidin-4-yl)amino)pyrimidin-4-yl)thiazol-2-yl)phenyl)-3-hydroxy-1-methylpyrrolidin-2-one] | > 7.00 | < 6.30
CN1CC[C@@](O)(c2cccc(-c3nc(-c4ccnc(Nc5cc6c(nn5)CCC6)n4)cs3)c2)C1=O [Example 71, (R)-3-(3-(4-(2-((6,7-dihydro-5H-cyclopenta[c]pyridazin-3-yl)amino)pyrimidin-4-yl)thiazol-2-yl)phenyl)-3-hydroxy-1-methylpyrrolidin-2-one] | > 7.00 | < 6.30
CN1CC[C@@](O)(c2cccc(-c3nc(-c4ccnc(Nc5cnn(CC6CCCO6)c5)n4)cs3)c2)C1=O (stereo partly drawn) [Example 72, (R)-3-hydroxy-1-methyl-3-(3-(4-(2-((1-(((R,S)-tetrahydrofuran-2-yl)methyl)-1H-pyrazol-4-yl)amino)pyrimidin-4-yl)thiazol-2-yl)phenyl)pyrrolidin-2-one] | > 7.00 | 6.30 to 7.00
CN1CC[C@@](O)(c2cccc(-c3nc(-c4ccnc(Nc5cnn(C6CCC6)c5)n4)cs3)c2)C1=O [Example 73, (R)-3-(3-(4-(2-((1-cyclobutyl-1H-pyrazol-4-yl)amino)pyrimidin-4-yl)thiazol-2-yl)phenyl)-3-hydroxy-1-methylpyrrolidin-2-one] | > 7.00 | 6.30 to 7.00
COc1c(Nc2nccc(-c3csc(-c4cccc([C@]5(O)CCN(C)C5=O)c4)n3)n2)ccnc1C [Example 74, (R)-3-hydroxy-3-(3-(4-(2-((3-methoxy-2-methylpyridin-4-yl)amino)pyrimidin-4-yl)thiazol-2-yl)phenyl)-1-methylpyrrolidin-2-one] | 6.30 to 7.00 | < 6.30
CN1CC[C@@](O)(c2cccc(-c3nc(-c4ccnc(Nc5ccn(CC(F)(F)F)n5)n4)cs3)c2)C1=O [Example 75, (R)-3-hydroxy-1-methyl-3-(3-(4-(2-((1-(2,2,2-trifluoroethyl)-1H-pyrazol-3-yl)amino)pyrimidin-4-yl)thiazol-2-yl)phenyl)pyrrolidin-2-one] | > 7.00 | 6.30 to 7.00
CCn1ccc(Nc2nccc(-c3csc(-c4cccc([C@]5(O)CCN(C)C5=O)c4)n3)n2)n1 [Example 76, (R)-3-(3-(4-(2-((1-ethyl-1H-pyrazol-3-yl)amino)pyrimidin-4-yl)thiazol-2-yl)phenyl)-3-hydroxy-1-methylpyrrolidin-2-one] | > 7.00 | 6.30 to 7.00
CN1CC[C@@](O)(c2cccc(-c3nc(-c4ccnc(Nc5ccccn5)n4)cs3)c2)C1=O [Example 77, (R)-3-hydroxy-1-methyl-3-(3-(4-(2-(pyridin-2-ylamino)pyrimidin-4-yl)thiazol-2-yl)phenyl)pyrrolidin-2-one] | > 7.00 | < 6.30
CCOc1cn(C)nc1Nc1nccc(-c2csc(-c3cccc([C@]4(O)CCN(C)C4=O)c3)n2)n1 [Example 78, (R)-3-(3-(4-(2-((4-ethoxy-1-methyl-1H-pyrazol-3-yl)amino)pyrimidin-4-yl)thiazol-2-yl)phenyl)-3-hydroxy-1-methylpyrrolidin-2-one] | > 7.00 | > 7.00
CN1CC[C@@](O)(c2cccc(-c3csc(-c4ccnc(Nc5cnn(C)c5)n4)n3)c2)C1=O [Example 79, (R)-3-hydroxy-1-methyl-3-(3-(2-(2-((1-methyl-1H-pyrazol-4-yl)amino)pyrimidin-4-yl)thiazol-4-yl)phenyl)pyrrolidin-2-one] | > 7.00 | < 6.30
CN1CC[C@@](O)(c2cccc(-c3csc(-c4ccnc(Nc5cnn(CC(F)F)c5)n4)n3)c2)C1=O [Example 80, (R)-3-(3-(2-(2-((1-(2,2-difluoroethyl)-1H-pyrazol-4-yl)amino)pyrimidin-4-yl)thiazol-4-yl)phenyl)-3-hydroxy-1-methylpyrrolidin-2-one] | > 7.00 | > 7.00
Cc1cc(Nc2nccc(-c3nc(-c4cccc([C@]5(O)CCN(C)C5=O)c4)cs3)n2)n(C)n1 [Example 81, (R)-3-(3-(2-(2-((1,3-dimethyl-1H-pyrazol-5-yl)amino)pyrimidin-4-yl)thiazol-4-yl)phenyl)-3-hydroxy-1-methylpyrrolidin-2-one] | 6.30 to 7.00 | < 6.30
CN1CC[C@@](O)(c2cccc(-c3csc(-c4ccnc(Nc5cnn6ccccc56)n4)n3)c2)C1=O [Example 82, (R)-3-hydroxy-1-methyl-3-(3-(2-(2-(pyrazolo[1,5-a]pyridin-3-ylamino)pyrimidin-4-yl)thiazol-4-yl)phenyl)pyrrolidin-2-one] | > 7.00 | > 7.00
CN1CC[C@@](O)(c2cccc(-c3csc(-c4ccnc(Nc5cnn(CCO)c5)n4)n3)c2)C1=O [Example 83, (R)-3-hydroxy-3-(3-(2-(2-((1-(2-hydroxyethyl)-1H-pyrazol-4-yl)amino)pyrimidin-4-yl)thiazol-4-yl)phenyl)-1-methylpyrrolidin-2-one] | > 7.00 | < 6.30
COc1cc(Nc2nccc(-c3nc(-c4cccc([C@]5(O)CCN(C)C5=O)c4)cs3)n2)n(C)n1 [Example 84, (R)-3-hydroxy-3-(3-(2-(2-((3-methoxy-1-methyl-1H-pyrazol-5-yl)amino)pyrimidin-4-yl)thiazol-4-yl)phenyl)-1-methylpyrrolidin-2-one] | < 6.30 | < 6.30
CN1CC[C@@](O)(c2cccc(-c3csc(-c4ccnc(Nc5cnn6cccnc56)n4)n3)c2)C1=O [Example 85, (R)-3-hydroxy-1-methyl-3-(3-(2-(2-(pyrazolo[1,5-a]pyrimidin-3-ylamino)pyrimidin-4-yl)thiazol-4-yl)phenyl)pyrrolidin-2-one] | > 7.00 | > 7.00
COCCn1cc(Nc2nccc(-c3nc(-c4cccc([C@]5(O)CCN(C)C5=O)c4)cs3)n2)cn1 [Example 86, (R)-3-hydroxy-3-(3-(2-(2-((1-(2-methoxyethyl)-1H-pyrazol-4-yl)amino)pyrimidin-4-yl)thiazol-4-yl)phenyl)-1-methylpyrrolidin-2-one] | > 7.00 | > 7.00
CN1CCC(n2cc(Nc3nccc(-c4nc(-c5cccc([C@]6(O)CCN(C)C6=O)c5)cs4)n3)cn2)CC1 [Example 87, (R)-3-hydroxy-1-methyl-3-(3-(2-(2-((1-(1-methylpiperidin-4-yl)-1H-pyrazol-4-yl)amino)pyrimidin-4-yl)thiazol-4-yl)phenyl)pyrrolidin-2-one] | > 7.00 | 6.30 to 7.00
CN1CC[C@@](O)(c2cccc(-c3csc(-c4ccnc(Nc5cnn(C6CCS(=O)(=O)CC6)c5)n4)n3)c2)C1=O [Example 88, (R)-3-(3-(2-(2-((1-(1,1-dioxidotetrahydro-2H-thiopyran-4-yl)-1H-pyrazol-4-yl)amino)pyrimidin-4-yl)thiazol-4-yl)phenyl)-3-hydroxy-1-methylpyrrolidin-2-one] | > 7.00 | 6.30 to 7.00
CN1CC[C@@](O)(c2cccc(-c3csc(-c4ccnc(Nc5cnn(CC(C)(C)O)c5)n4)n3)c2)C1=O [Example 89, (R)-3-hydroxy-3-(3-(2-(2-((1-(2-hydroxy-2-methylpropyl)-1H-pyrazol-4-yl)amino)pyrimidin-4-yl)thiazol-4-yl)phenyl)-1-methylpyrrolidin-2-one] | > 7.00 | > 7.00
CN1CC[C@@](O)(c2cccc(-c3ccn(-c4ccnc(Nc5cnn(C)c5)n4)n3)c2)C1=O [Example 90, (R)-3-hydroxy-1-methyl-3-(3-(1-(2-((1-methyl-1H-pyrazol-4-yl)amino)pyrimidin-4-yl)-1H-pyrazol-3-yl)phenyl)pyrrolidin-2-one] | > 7.00 | 6.30 to 7.00
CN1CC[C@@](O)(c2cccc(-c3nc(-c4ccnc(Nc5cn(C)nc5OC5CCCC5)n4)cs3)c2)C1=O [Example 95, (R)-3-(3-(4-(2-((3-(cyclopentyloxy)-1-methyl-1H-pyrazol-4-yl)amino)pyrimidin-4-yl)thiazol-2-yl)phenyl)-3-hydroxy-1-methylpyrrolidin-2-one] | > 7.00 | 6.30 to 7.00
CN1CC[C@@](O)(c2cccc(-c3nc(-c4ccnc(Nc5cn(C)nc5OCC(F)F)n4)cs3)c2)C1=O [Example 96, (R)-3-(3-(4-(2-((3-(2,2-difluoroethoxy)-1-methyl-1H-pyrazol-4-yl)amino)pyrimidin-4-yl)thiazol-2-yl)phenyl)-3-hydroxy-1-methylpyrrolidin-2-one] | > 7.00 | > 7.00
